Results reported in patent US9457062B2, “Chaperonin 10-induced immunomodulation” (CBIO LIMITED, priority 2005, dated 2016).
One block for each substance: values may come before it.

How the values were obtained:
TLR3 = molecular target: T1, TLR3 (Mus musculus, UniProt Q99MB1); assay: IFNβ ELISA of supernatants of RAW264.7 cells stimulated with polyI:C; type: cell-based
T1 construct: Experiments were conducted in the murine macrophage cell line RAW264.7; endogenous in cells; host or cells: RAW264.7 / RAW264-pNifty2-LUC
Protocol: Briefly, RAW264.7 cells were seeded at 2×10^5 cells/well in 24 well plates and cultured overnight (37° C., 5% CO2). Recombinant human Cpn10 (at concentrations between 10 μg/ml and 200 μg/ml) or buffer was added to cells in duplicate for 2 hours followed by the addition of polyI:C (tlrl-pic, InvivoGen, San Diego, Calif.) to a final concentration of 100 μg/ml. After 24 hours, supernatants were collected and analysed for IFNβ levels using a specific ELISA according to manufacturer's instructions (Cat No. 42400-1, R&D Systems Inc, Minneapolis, Minn.).

RAW264.7 cells [1] = test system: RAW264.7 cells
Protocol: (§2) For the data shown in FIG. 34, PolyI:C (supplied by Invivogen) was dissolved in sterile saline at 5 mg/ml stored frozen at −20° C. Vials were thawed and diluted into medium. For buffer controls, the same volume and sterile saline was added to cell culture wells. […] RAW264.7 cells were grown as adherent cultures in flasks and scraped (i.e. not trypisinised) prior to seeding into 96-well plates. HeLa cells were trypsinised in the standard way prior to seeding. Cells were seeded in duplicate in a 96-well plate (5×10^3 for RAW264.7 cells and 10^4 for HeLa cells in 50 μl medium per well). After 4 h, Cpn10 was added (in 50 μl diluted in medium) and after a further 30 mins polyI:C was added (in 50 μl diluted in medium). The cells were then incubated overnight in the 96-well plates and then RRV was added (MOI=1 for RAW264.7 cells, and MOI=10 for HeLa cells in 50 μl). After 3 days, the cells were fixed, stained with crystal violet, washed, dried and dye extracted with 100% methanol and read at A595 nm as described (Antalis et al, J Exp Med 1998, 187(11):1799). […] Titrations were established to determine the dose required for induction of anti-viral resistance for RAW264.7 cells and HeLa cells.

Cpn10 promoter = Cpn10 promoter luciferase reporter (pCAT/LUC-CPN) in RAW264.7 cells; type: cell-based, mouse; details: for up-regulation of the Cpn10 promoter: optimal agonist concentrations (FIG. 18H): IFNγ 1 ng/ml, IL-1β 1 ng/ml, TNF-α 100 ng/ml
From the text: Reagents. Recombinant human Cpn10 was produced to GMP specifications by BresaGen Limited (Adelaide, Aus) essentially as described previously (Johnson, B. 2005. J. Biol Chem 280:4037-4047). […] For FACS analysis, a cysteine residue was engineered onto the C-terminus of Cpn10 and labeled with AlexFluor647 (Invitrogen) according to manufacturer's instructions. […] TLR ligands and cytokines included: E. coli LPS (strain 055:B5, Sigma), E. coli ultra-pure LPS (0111:B4 Sigma), S. aureus LTA, B. subtilis LTA, S. aureus PGN, B. subtilis PGN, zymosan cell wall from S. cerevisae, poly(I:C), imiquimod R837, CpG ODN 1826 and ODN2216, GpC ODN1826 control, (all from Invivogen, San Diego, Calif.), recombinant mouse IFNγ, (Chemicon), IL-1β (PeproTech), and recombinant human TNF-α (Invivogen). Antibodies. Rabbit polyclonal antibodies were raised against Cpn10 and affinity purified at CBio. Cytometric Bead Array (CBA) Flex Sets recognizing phosphorylated signal proteins (both human and mouse) including ERK1/2 (T202/Y204), JNK1/2 (T183/Y185), p38/MAPKinase (T180/Y182), CD14, and FcBlock (CD16/CD32) were from BD. Transfection, Cell Stimulation and Promoter analysis. The pCAT/LUC-CPN promoter construct was provided by M. Ryan and N. Hoogenraad (La Trobe University, Melbourne). RAW264.7 cells were transiently transfected using GeneJuice (Novagen). After 24 h cells were harvested and cell viability assessed by trypan blue dye exclusion. Cells were seeded into 24-well plates and heat shocked (43° C. for 15 min (mild), 30 min (moderate), or 60 min (severe)) followed by recovery at 37° C. or stimulated after 18 h. Cells were washed, harvested in Cell Culture Lysis Reagent (CCLR, Promega) and firefly luciferase signal measured using the Luciferase Assay System (Promega) and the Wallac Victor 2 Multilabel Counter (Perkin-Elmer). Real-time PCR. RAW264.7 cells were seeded at 2.5×10^5/ml in sterile 24 well plates and adhered for 16-20 hrs prior to stimulation. […] Cells were assessed for viability, pooled per condition (n=4), pelleted by centrifugation and resuspended in CCLR.

RAW264.7 cells [2] = assay: ELISA of endogenous Cpn10 in RAW264.7 culture supernatants and cell lysates; type: cell-based, mouse
From the text: Reagents. Recombinant human Cpn10 was produced to GMP specifications by BresaGen Limited (Adelaide, Aus) essentially as described previously (Johnson, B. 2005. J. Biol Chem 280:4037-4047). […] For FACS analysis, a cysteine residue was engineered onto the C-terminus of Cpn10 and labeled with AlexFluor647 (Invitrogen) according to manufacturer's instructions. […] TLR ligands and cytokines included: E. coli LPS (strain 055:B5, Sigma), E. coli ultra-pure LPS (0111:B4 Sigma), S. aureus LTA, B. subtilis LTA, S. aureus PGN, B. subtilis PGN, zymosan cell wall from S. cerevisae, poly(I:C), imiquimod R837, CpG ODN 1826 and ODN2216, GpC ODN1826 control, (all from Invivogen, San Diego, Calif.), recombinant mouse IFNγ, (Chemicon), IL-1β (PeproTech), and recombinant human TNF-α (Invivogen). Antibodies. Rabbit polyclonal antibodies were raised against Cpn10 and affinity purified at CBio. […] After 24 h cells were harvested and cell viability assessed by trypan blue dye exclusion. […] Cells were washed, harvested in Cell Culture Lysis Reagent (CCLR, Promega) and firefly luciferase signal measured using the Luciferase Assay System (Promega) and the Wallac Victor 2 Multilabel Counter (Perkin-Elmer). […] Cells were assessed for viability, pooled per condition (n=4), pelleted by centrifugation and resuspended in CCLR.

Cpn10 mRNA = Cpn10 mRNA real-time PCR in RAW264.7 cells; type: cell-based, mouse; details: maximal induction at 18 h, near baseline by 24 h
GM1 = assay: FRET with GM1 (lipid rafts) on MonoMac 6 cells; type: binding, human; details: donor GM1
Protocol: (§1) Cell labeling for FRET. MonoMac 6 cells (a human monocytic cell line) were labeled with 100 μl of a mixture of donor conjugated antibody (Cy3) and acceptor conjugated antibody (Cy5). For labelling of Cpn10, an anti-Cpn10 rabbit polyclonal antibody was used. The cells were rinsed twice in PBS/0.02% BSA, prior to fixation with 4% formaldehyde for 15 min. The cells were fixed in order to prevent potential re-organisation of the proteins during the course of the experiment. Confocal imaging. Cells were imaged on a Carl Zeiss, Inc. LSM510 confocal microscope (with an Axiovert 200 fluorescent microscope) using a 1.4 NA 63× Zeiss objective. The images were analysed using LSM 2.5 image analysis software (Carl Zeiss, Inc.). Cy3 and Cy5 were detected using the appropriate filter sets. Using typical exposure times for image acquisition (less than 5 s), no fluorescence was observed from a Cy3-labelled specimen using the Cy5 filters, nor was Cy5 fluorescence detected using the Cy3 filter sets. FRET measurements. FRET is a non-invasive imaging technique used to determine molecular proximity. […]
In the present study, FRET was measured using a method as previously described (Kenworthy and Edidin (1998) Journal of Cell Biology 142: 69-84; Kenworthy and Edidin (1998) in Gelb, M. H. (Ed.) Methods in molecular Biology. Humana Press Inc, Totowa, N.J. pp 37-49). […]

CD14 = molecular target: T2, CD14 (Homo sapiens, UniProt P08571); assay: FRET with CD14 on MonoMac 6 cells; type: binding
T2 construct: MonoMac 6 cells (a human monocytic cell line); endogenous in cells; host or cells: MonoMac 6
T2 sequence (P08571 20-345): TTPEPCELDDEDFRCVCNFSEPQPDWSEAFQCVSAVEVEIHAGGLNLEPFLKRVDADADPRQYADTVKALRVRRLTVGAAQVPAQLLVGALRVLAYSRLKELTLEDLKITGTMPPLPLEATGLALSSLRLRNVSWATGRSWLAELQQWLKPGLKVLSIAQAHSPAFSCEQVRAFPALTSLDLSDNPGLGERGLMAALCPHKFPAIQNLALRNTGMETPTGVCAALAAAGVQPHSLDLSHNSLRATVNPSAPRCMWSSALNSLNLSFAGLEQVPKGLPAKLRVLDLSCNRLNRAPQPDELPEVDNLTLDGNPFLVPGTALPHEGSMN
Protocol: as §1, with “used. […]” for “used. The cells were rinsed twice in PBS/0.02% BSA, prior to fixation with 4% formaldehyde for 15 min.”, “measurements. […] In the present study,” for “measurements.”, “FRET was measured using” for “FRET is”, “a method as previously described (Kenworthy and […] (1998) Journal of Cell Biology 142: 69-84; Kenworthy and […] (1998) in Gelb, M. H. (Ed.) Methods in” for “a non-invasive imaging technique used to determine”, “molecular Biology. Humana Press Inc, Totowa, N.J. pp 37-49). Briefly, samples were labeled with donor and acceptor conjugated antibodies, and energy transfer was detected as an increase in donor fluorescence (dequenching) after complete photobleaching of the acceptor molecule.” for “molecular proximity.”

TLR4 = molecular target: T3, TLR4 (Homo sapiens, UniProt O00206); assay: FRET with TLR4 on MonoMac 6 cells; type: binding
T3 construct: endogenous in cells; host or cells: freshly isolated human monocytes; human monocyte-derived DC
Protocol: as §1, with “used. […]” for “used. The cells were rinsed twice in PBS/0.02% BSA, prior to fixation with 4% formaldehyde for 15 min.”, “measurements. […] In the present study,” for “measurements.”, “FRET was measured using” for “FRET is”, “a method as previously described (Kenworthy and […] (1998) Journal of Cell Biology 142: 69-84; Kenworthy and […] (1998) in Gelb, M. H. (Ed.) Methods in” for “a non-invasive imaging technique used to determine”, “molecular Biology. Humana Press Inc, Totowa, N.J. pp 37-49). Briefly, samples were labeled with donor and acceptor conjugated antibodies, and energy transfer was detected as an increase in donor fluorescence (dequenching) after complete photobleaching of the acceptor molecule.” for “molecular proximity.”

Hsp70 = assay: FRET with Hsp70 on MonoMac 6 cells; type: binding, human
Protocol: as §1, with “used. […]” for “used. The cells were rinsed twice in PBS/0.02% BSA, prior to fixation with 4% formaldehyde for 15 min.”, “measurements. […] In the present study,” for “measurements.”, “FRET was measured using” for “FRET is”, “a method as previously described (Kenworthy and […] (1998) Journal of Cell Biology 142: 69-84; Kenworthy and […] (1998) in Gelb, M. H. (Ed.) Methods in” for “a non-invasive imaging technique used to determine”, “molecular Biology. Humana Press Inc, Totowa, N.J. pp 37-49). Briefly, samples were labeled with donor and acceptor conjugated antibodies, and energy transfer was detected as an increase in donor fluorescence (dequenching) after complete photobleaching of the acceptor molecule.” for “molecular proximity.”

Hsp90 = assay: FRET with Hsp90 on MonoMac 6 cells; type: binding, human
Protocol: as §1, with “used. […]” for “used. The cells were rinsed twice in PBS/0.02% BSA, prior to fixation with 4% formaldehyde for 15 min.”, “measurements. […] In the present study,” for “measurements.”, “FRET was measured using” for “FRET is”, “a method as previously described (Kenworthy and […] (1998) Journal of Cell Biology 142: 69-84; Kenworthy and […] (1998) in Gelb, M. H. (Ed.) Methods in” for “a non-invasive imaging technique used to determine”, “molecular Biology. Humana Press Inc, Totowa, N.J. pp 37-49). Briefly, samples were labeled with donor and acceptor conjugated antibodies, and energy transfer was detected as an increase in donor fluorescence (dequenching) after complete photobleaching of the acceptor molecule.” for “molecular proximity.”

CXCR4 = molecular target: T4, CXCR4 (Homo sapiens, UniProt P61073); assay: FRET with CXCR4 on MonoMac 6 cells; type: binding
T4 construct: MonoMac 6 cells (a human monocytic cell line); endogenous in cells; host or cells: MonoMac 6
Protocol: as §1, with “used. […]” for “used. The cells were rinsed twice in PBS/0.02% BSA, prior to fixation with 4% formaldehyde for 15 min.”, “measurements. […] In the present study,” for “measurements.”, “FRET was measured using” for “FRET is”, “a method as previously described (Kenworthy and […] (1998) Journal of Cell Biology 142: 69-84; Kenworthy and […] (1998) in Gelb, M. H. (Ed.) Methods in” for “a non-invasive imaging technique used to determine”, “molecular Biology. Humana Press Inc, Totowa, N.J. pp 37-49). Briefly, samples were labeled with donor and acceptor conjugated antibodies, and energy transfer was detected as an increase in donor fluorescence (dequenching) after complete photobleaching of the acceptor molecule.” for “molecular proximity.”

T4 sequence (P61073 whole entry): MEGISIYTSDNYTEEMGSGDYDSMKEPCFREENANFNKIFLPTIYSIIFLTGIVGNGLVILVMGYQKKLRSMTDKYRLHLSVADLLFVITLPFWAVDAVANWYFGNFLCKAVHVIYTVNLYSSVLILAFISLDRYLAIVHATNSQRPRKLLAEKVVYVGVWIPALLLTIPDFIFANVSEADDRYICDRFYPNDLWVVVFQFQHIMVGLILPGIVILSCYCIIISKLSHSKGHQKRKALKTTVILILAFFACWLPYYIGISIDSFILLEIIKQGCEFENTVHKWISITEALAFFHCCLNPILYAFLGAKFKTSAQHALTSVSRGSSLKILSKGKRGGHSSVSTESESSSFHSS
T1 sequence (Q99MB1 26-905): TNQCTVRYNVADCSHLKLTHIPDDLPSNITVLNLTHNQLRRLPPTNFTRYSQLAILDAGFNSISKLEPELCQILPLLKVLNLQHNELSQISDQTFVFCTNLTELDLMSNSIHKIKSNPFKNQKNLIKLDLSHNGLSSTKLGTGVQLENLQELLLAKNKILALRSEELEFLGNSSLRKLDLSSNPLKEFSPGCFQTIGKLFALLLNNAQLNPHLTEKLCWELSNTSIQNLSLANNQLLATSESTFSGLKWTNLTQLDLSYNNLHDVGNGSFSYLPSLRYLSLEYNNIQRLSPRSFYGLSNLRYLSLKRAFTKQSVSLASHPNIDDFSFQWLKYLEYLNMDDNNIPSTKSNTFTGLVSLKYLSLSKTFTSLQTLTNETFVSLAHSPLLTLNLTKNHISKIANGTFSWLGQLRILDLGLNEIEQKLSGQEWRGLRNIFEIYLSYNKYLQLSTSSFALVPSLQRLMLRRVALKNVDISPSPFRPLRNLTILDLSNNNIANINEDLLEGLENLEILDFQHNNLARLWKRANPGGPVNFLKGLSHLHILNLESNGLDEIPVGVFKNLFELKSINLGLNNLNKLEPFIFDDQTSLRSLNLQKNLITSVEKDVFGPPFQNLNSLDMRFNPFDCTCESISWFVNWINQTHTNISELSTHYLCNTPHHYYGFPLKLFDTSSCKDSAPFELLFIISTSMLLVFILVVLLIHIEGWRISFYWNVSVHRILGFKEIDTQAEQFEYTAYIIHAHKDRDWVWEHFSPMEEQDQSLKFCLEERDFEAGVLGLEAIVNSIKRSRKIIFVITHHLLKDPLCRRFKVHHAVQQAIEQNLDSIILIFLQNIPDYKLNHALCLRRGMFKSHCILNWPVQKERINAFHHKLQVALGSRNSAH
T3 sequence (O00206 24-839): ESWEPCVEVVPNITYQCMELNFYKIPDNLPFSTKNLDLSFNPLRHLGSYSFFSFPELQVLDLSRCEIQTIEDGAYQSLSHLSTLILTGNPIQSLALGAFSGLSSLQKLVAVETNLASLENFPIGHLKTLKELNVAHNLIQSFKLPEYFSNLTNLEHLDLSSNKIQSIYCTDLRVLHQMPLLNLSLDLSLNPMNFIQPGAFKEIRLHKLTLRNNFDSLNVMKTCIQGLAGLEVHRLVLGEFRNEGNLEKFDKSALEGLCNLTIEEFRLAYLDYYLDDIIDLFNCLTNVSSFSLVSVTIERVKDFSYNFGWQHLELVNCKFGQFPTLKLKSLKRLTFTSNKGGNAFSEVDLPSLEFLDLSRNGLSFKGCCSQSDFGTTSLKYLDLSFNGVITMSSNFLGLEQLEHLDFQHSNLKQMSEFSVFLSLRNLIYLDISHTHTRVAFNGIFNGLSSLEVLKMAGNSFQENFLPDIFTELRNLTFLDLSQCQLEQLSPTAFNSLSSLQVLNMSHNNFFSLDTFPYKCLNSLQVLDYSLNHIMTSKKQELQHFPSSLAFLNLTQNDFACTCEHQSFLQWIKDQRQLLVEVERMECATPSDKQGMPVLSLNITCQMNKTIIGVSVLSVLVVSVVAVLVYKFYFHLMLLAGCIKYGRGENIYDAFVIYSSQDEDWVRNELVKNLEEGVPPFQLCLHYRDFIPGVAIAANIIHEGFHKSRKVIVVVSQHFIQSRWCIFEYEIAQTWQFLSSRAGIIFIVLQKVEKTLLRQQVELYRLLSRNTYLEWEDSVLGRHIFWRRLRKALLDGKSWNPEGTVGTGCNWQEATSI
Protocol for HeLa cells: as §2

IFNβ released into culture supernatants (TLR3; polyI:C at 100 μg/ml, absence of Cpn10): 292 pg/mL
Substance: polyinosinic-polysytidilic acid [polyI:C]
concentrations showing clear signs of toxicity (RAW264.7 cells [1]): 5000 to 10000 ng/mL
toxicity (HeLa cells): No such toxicity was observed

Substance: IL-1β: IL-1β (PeproTech), non-TLR agonist
up-regulation of the Cpn10 promoter (Cpn10 promoter): did not induce substantial up-regulation

Substance: lipoteichoic acid [LTA]
induction of the Cpn10 promoter (Cpn10 promoter; 24 hour stimulation, constant at 30 hours): 2.7 fold
intracellular Cpn10 levels in cell lysates (RAW264.7 cells [2]; LTA treated vs control cells): little change in intracellular Cpn10 levels
increase in soluble (extracellular) Cpn10 in culture supernatants over unstimulated control cells (RAW264.7 cells [2]; after 30 h, 100 μg/ml LTA): 3 fold
induction of Cpn10 mRNA (Cpn10 mRNA): concentration-dependent induction of Cpn10 mRNA

Substance: GroES: E. coli homologue of Cpn10, routinely used as a negative control
effect on polyI:C-induced IFNβ levels in culture supernatants (TLR3; polyI:C stimulation, 10-200 μg/ml protein): did not modulate the production of IFN-β
E ± ΔE (%) energy transfer efficiency (GM1; MM6 cells stimulated with LPS): 6 ± 1.0%
E ± ΔE (%) energy transfer efficiency (GM1; Unstimulated MM6 cells): 7 ± 1.5%
E ± ΔE (%) energy transfer efficiency (CD14; MM6 cells stimulated with LPS): 7 ± 0.5%
E ± ΔE (%) energy transfer efficiency (CD14; Unstimulated MM6 cells): 8 ± 1.0%
E ± ΔE (%) energy transfer efficiency (TLR4; MM6 cells stimulated with LPS): 8 ± 1.0%
E ± ΔE (%) energy transfer efficiency (TLR4; Unstimulated MM6 cells): 7 ± 1.5%
E ± ΔE (%) energy transfer efficiency (Hsp70; MM6 cells stimulated with LPS): 7 ± 1.5%
E ± ΔE (%) energy transfer efficiency (Hsp70; Unstimulated MM6 cells): 6 ± 1.0%
E ± ΔE (%) energy transfer efficiency (Hsp90; MM6 cells stimulated with LPS): 8 ± 2.0%
E ± ΔE (%) energy transfer efficiency (Hsp90; Unstimulated MM6 cells): 7 ± 1.5%
E ± ΔE (%) energy transfer efficiency (CXCR4; MM6 cells stimulated with LPS): 3 ± 1.0%
E ± ΔE (%) energy transfer efficiency (CXCR4; Unstimulated MM6 cells): 4 ± 2.0%

Substance: TNF-α
up-regulation of the Cpn10 promoter (Cpn10 promoter): did not induce substantial up-regulation
